Experimental data taken from patent US9757375B2, “Compounds that inhibit human DNA ligases and methods of treating cancer” (University of Maryland, Baltimore, priority 2007, dated 2017).

Experiments:
HeLa cell extract [1] = assay: Cell extract assay of short patch base excision repair (incised AP site); format: biochemical, human; conditions: 100 μmol/L (also 25 μM in the source), FIG. 4B
Method: (§1) Extracts were prepared from human cervical cancer HeLa cells as described previously (27, 31). For base excision repair (BER) assays, the extraction buffer contained 100 mmol/L of KCl, whereas for nonhomologous end-joining (NHEJ) assays, extraction buffer contained 400 mmol/L of KCl. Where indicated, DNA ligases were immunodepleted from the extracts as described (32) using protein A or G Sepharose beads (GE Healthcare) and anti-Lig1, anti-LigIII (GeneTex), or anti-LigIV (ABCAM) antibodies. Depletion was confirmed by immunoblotting.
A labeled 5′-flap substrate (0.1 pmol; (31)) was incubated with 20 μg of extract in the absence or presence of ligase inhibitors (100 μmol/L) at 25° C. for 5 min in ligation buffer (final volume, 50 μL). For short patch BER, a linear duplex containing a single uracil residue was preincised by treatment with uracil DNA glycosylase and APE1 (both from NEB) to generate a strand break with 3′ hydroxyl and 5′ deoxyribose phosphate termini. Reactions (50 μL) containing 0.3 pmol of the incised DNA substrate, 10 μCi of [α^32P]dTTP, and 20 μg of extract either in the absence or presence of ligase inhibitors (100 μmol/L) were incubated at 25° C. for 2 min in ligation buffer. After separation by denaturing polyacrylamide gel electrophoresis, labeled oligonucleotides were detected in the dried gel by phosphorImager analysis (Molecular Dynamics).
A natural AP site within a linear DNA molecule (FIG. 4B) is repaired primarily by short patch base excision repair that is completed by DNA ligase 111 (15). FIG. 4B, the linear DNA substrate with an incised AP site (0.3 pmol) was incubated with a cell extract (20 μg) and [a32P]dTTP in the absence (lane 1, Mock) or presence of 100 μmol/L of L189 (lane 2), L67 (lane 3), or L82 (lane 4). hLigI (lane 5, I-dp) and hLigIIIα (lane 6, III-dp) were immunodepleted from the cell extracts prior to incubation with the DNA substrate. […] After separation by denaturing gel electrophoresis, labeled fragments corresponding to a single nucleotide insertion and fully repaired product were detected by phosphorimaging (16). […]

HeLa cell extract [2] = assay: Cell extract assay of nonhomologous end-joining (1 kb cohesive-ended fragment); format: biochemical, human; conditions: 100 μmol/L (also 25 μM in the source), FIG. 4C
Method: as §1
To assay NHEJ (24), a 1 kb end-labeled BamHI fragment (0.1 pmol; (33)). and 20 μg of extract were incubated in ligation buffer (final volume, 20 μL), for 120 min at 25° C. either in the presence or absence of ligase inhibitors (100 μmol/L). DNA fragments were resolved by separation through a 0.8% agarose gel. Labeled DNA fragments were detected in the dried gel by phosphorImager analysis (Molecular Dynamics).
Linear DNA molecules with short complementary single strand overhangs are repaired by non-homologous end joining that is completed by DNA ligase IV (27). A HeLa extract was incubated with a labeled linear cohesive-ended 1 kb fragment with cohesive ends repair in the absence or presence of Compounds 67, 82 and 189 (25 μM).). Lane 7, DNA ligase I was immunodepleted from the extract prior to the assay. […], DNA ligase III was immunodepleted from the extract prior to the assay. […], DNA ligase IV was immunodepleted from the extract prior to the assay. After separation by native agarose gel electrophoresis, the linear DNA substrate, re-circularized substrate and dimers trimers etc of the 1 kb substrate were detected by phosphorimaging (27). […]

MCF10A cells = assay: Screen for potentiation of DNA damaging agents (MMS, camptothecin, cis-platinum, 3 aminobenzamide, ionizing radiation); format: cell-based, human; conditions: for IC50 ratios of non- and 3-AB treated cells MCF10A: compound alone vs combination with 3-AB (2 mM); for IC50 ratios of non- and 3-AB treated cells MCF10A / MMS: Ratios of IC50 MCF10A: 1 = no sensitization; for MMS: Ratios of IC50 MCF10A: compound alone vs combination with MMS (100 μM); for % growth inhibition MCF10A [2 Gy] 5-15 uM: with 2 Gy ionizing radiation, tick mark only; for Radiosensitizers: IC50 ratios MCF10A: ionizing radiation
In short: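 HCT116 colon cancer and MCF10A breast epithelial cells received compounds at 15 μM or 50 μM one day after plating; for ionizing radiation, cells were pre-incubated 1 h with 50 μM compound before 2 Gy. After 3 days, cells were lysed with Igepal CA-630 plus SYBR green, and DNA fluorescence served as the proliferation read-out.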

Row | Structure (SMILES) | repair of the natural AP site (short patch base excision repair) (HeLa cell extract [1]) | joining of linear DNA molecules (non-homologous end joining) (HeLa cell extract [2]) | IC50 ratios of non- and 3-AB treated cells MCF10A (MCF10A cells) | MMS: Ratios of IC50 MCF10A (MCF10A cells) | % growth inhibition MCF10A [2 Gy] 5-15 uM (MCF10A cells) | Radiosensitizers: IC50 ratios MCF10A (MCF10A cells)
1 | Nc1nc(S)nc(O)c1/N=C/c1ccccc1 [Compound 189] | reduce repair of the natural AP site | reduced joining of the linear DNA molecules | – | – | – | –
2 | Cc1c(Br)cc(NCC(=O)N/N=C\c2cc([N+](=O)[O-])ccc2O)cc1Br [Compound 67] | reduce repair of the natural AP site | had no effect | 1.7 | 1.2 | ✓ | –
3 | O=c1[nH]ncc(N/N=C\c2ccc(O)c([N+](=O)[O-])c2)c1Cl [Compound 82] | has no effect | had no effect | – | – | – | –
4 | O=C(c1ccc(O)cc1)c1ccccc1O [Compound 200] | – | – | ID (1.2) | ID (1) | – | –
5 | O=C1Nc2ccccc2Oc2cc([N+](=O)[O-])cc([N+](=O)[O-])c21 [Compound 180] | – | – | – | 1 | – | –
6 | O=C(Cn1cnc([N+](=O)[O-])n1)N/N=C/c1ccc(O)cc1O [Compound 151] | – | – | – | 1.8 | ✓ | 1
7 | O=C(O)CSc1cc(Cl)c2nonc2c1[N+](=O)[O-] [Compound 64] | – | – | 2 | – | – | 1.2
